What all share (type): biochemical, Human Coxsackievirus B3
Test [1] deals with T1, CVB3 3C^pro (Coxsackievirus B3, UniProt P03313). As to the kind of experiment: FRET-based enzyme assay of CVB3 3C^pro.
Test [2] concerns the target T1, CVB3 3C^pro. As to the kind of experiment: Enzyme kinetics study.
The target of test [3] is T1, CVB3 3C^pro. In words: Reversibility test by large and rapid dilution of enzyme-inhibitor complex. The note with it: 50-fold IC50 pre-incubated 30 min at 35 °C, then diluted 50-fold.

The source of these data is PMC7094222 (Febs Letters, 2015).

The IC50 is the concentration at which inhibition is half-maximal. A low value points to greater potency. In general, inhibition refers to how much of the control response was suppressed. As a reminder, the Ki is the dissociation constant of the complex between target and ligand, obtained from inhibition or displacement. Lower therefore signals higher affinity.

T1 sequence (P03313 1541-1723): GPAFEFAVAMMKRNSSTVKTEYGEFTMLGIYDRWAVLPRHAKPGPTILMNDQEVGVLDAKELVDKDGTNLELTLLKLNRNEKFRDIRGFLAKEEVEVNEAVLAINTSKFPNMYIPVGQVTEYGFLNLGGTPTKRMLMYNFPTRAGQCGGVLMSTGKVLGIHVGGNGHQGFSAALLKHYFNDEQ

At CVB3 3C^pro [1], `NC(CO)C(=O)N/N=C\c1ccc(O)c(O)c1O` (centres unmarked) [8a, (Z)-2-amino-3-hydroxy-N'-(2,3,4-trihydroxybenzylidene)propanehydrazide] showed an IC50 of 2.72 µM. Take `NC(CO)C(=O)NNCc1ccc(O)c(O)c1` (centres unmarked) [9e, 2-amino-N'-(3,4-dihydroxybenzyl)-3-hydroxypropanehydrazide]: the inhibition at 50 µM on CVB3 3C^pro [1] (read-out: % Inhibition 50 μM) is 56.2%.

Take `NC(CO)C(=O)NNCc1ccc(O)c(O)c1O` (centres unmarked) [Benserazide, 2-amino-3-hydroxy-N'-(2,3,4-trihydroxybenzyl)propanehydrazide]: at CVB3 3C^pro [2], the affinity corresponds to a Ki of 4.7 µM. The “mechanism of the inhibition” value at CVB3 3C^pro [2] (inhibitor 0–10 μM, substrate 0–400 μM, V max reduced without a change in K m) is “non-competitive inhibitor”. For the same molecule, at CVB3 3C^pro [3], the reversibility of inhibition entry is on record as “reversible pattern”.
